Measured values from PMC6210068 (ACS Omega, 2018).
Blank lines part the entries; values can stand above or below the molecule they belong to.

Key:
[1] = target: human 5HT1A serotonin receptor (Homo sapiens, UniProt P08908); assay: PDSP off-target binding, 5HT1A
rat σ2 receptor = target: T1, rat σ2 receptor (Rattus norvegicus, UniProt Q5U3Y7); assay: PDSP binding, σ2 receptor
T1 sequence (Q5U3Y7 1-176): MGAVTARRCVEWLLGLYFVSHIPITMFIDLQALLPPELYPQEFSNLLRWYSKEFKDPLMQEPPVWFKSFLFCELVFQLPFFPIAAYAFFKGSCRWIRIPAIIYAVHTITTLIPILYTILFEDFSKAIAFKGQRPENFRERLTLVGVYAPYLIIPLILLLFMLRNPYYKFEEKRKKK

DOR [2] = target: T2, DOR (Homo sapiens, UniProt P41143); assay: Radioligand binding at DOR
T2 sequence (P41143 whole entry): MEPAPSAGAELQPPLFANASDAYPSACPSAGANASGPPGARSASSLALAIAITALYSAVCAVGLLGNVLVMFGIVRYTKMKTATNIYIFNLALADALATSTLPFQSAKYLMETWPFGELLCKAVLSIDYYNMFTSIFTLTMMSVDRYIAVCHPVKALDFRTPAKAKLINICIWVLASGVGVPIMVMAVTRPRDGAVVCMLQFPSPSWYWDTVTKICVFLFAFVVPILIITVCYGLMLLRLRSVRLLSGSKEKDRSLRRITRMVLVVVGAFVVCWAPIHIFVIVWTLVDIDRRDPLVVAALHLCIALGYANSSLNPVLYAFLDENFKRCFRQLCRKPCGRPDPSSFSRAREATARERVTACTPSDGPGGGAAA

β3 adrenergic receptor = β3 adrenergic receptor (Homo sapiens, UniProt P13945); assay: PDSP off-target binding, β3 adrenergic
Sequence of β3 adrenergic receptor (P13945 whole entry): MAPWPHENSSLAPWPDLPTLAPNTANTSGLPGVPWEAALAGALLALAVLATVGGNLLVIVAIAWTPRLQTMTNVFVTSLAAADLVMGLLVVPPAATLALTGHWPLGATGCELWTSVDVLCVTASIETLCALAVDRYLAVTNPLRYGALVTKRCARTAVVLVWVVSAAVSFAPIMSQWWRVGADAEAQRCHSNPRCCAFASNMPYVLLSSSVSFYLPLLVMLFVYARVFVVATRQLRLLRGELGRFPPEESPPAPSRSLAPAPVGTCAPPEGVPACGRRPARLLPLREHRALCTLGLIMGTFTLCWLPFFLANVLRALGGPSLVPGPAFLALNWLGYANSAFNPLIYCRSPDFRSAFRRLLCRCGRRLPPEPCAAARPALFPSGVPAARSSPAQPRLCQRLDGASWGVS

rat kidney TSPO = rat kidney TSPO (Rattus norvegicus, UniProt P16257); assay: Radioligand binding at TSPO; settings: for Ki: TSPO, rat TSPO, [3H]PK11195
Sequence of rat kidney TSPO (P16257 whole entry): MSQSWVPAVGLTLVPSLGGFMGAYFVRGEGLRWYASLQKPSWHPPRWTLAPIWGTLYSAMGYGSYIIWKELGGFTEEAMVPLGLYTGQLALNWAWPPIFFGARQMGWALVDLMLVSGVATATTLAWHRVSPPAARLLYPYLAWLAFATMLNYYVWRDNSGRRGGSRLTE

hDAT [3] = target: T3, hDAT (Homo sapiens, UniProt Q01959); settings: read-out: Ki, inhibition of binding of [3H]103 at hDAT; cited from earlier work
T3 sequence (Q01959 whole entry): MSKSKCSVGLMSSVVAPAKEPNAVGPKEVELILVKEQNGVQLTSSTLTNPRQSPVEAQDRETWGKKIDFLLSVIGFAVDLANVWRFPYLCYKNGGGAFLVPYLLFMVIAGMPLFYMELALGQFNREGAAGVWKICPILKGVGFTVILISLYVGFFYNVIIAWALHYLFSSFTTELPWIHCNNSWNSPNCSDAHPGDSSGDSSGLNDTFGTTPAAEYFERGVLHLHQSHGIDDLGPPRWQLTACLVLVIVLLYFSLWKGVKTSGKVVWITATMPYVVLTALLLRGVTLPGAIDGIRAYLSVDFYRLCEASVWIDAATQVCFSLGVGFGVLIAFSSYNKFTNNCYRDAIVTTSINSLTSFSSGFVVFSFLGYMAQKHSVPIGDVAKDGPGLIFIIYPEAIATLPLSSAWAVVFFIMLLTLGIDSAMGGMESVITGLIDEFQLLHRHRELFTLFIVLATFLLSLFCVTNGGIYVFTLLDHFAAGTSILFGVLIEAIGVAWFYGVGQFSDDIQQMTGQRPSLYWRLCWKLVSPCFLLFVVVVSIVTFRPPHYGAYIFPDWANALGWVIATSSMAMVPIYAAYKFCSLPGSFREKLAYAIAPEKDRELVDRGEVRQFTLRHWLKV

KOR [4] = target: T4, KOR (Homo sapiens, UniProt P41145); assay: β-arrestin-recruitment TANGO assay at KOR; type: cell-based; settings: 10 μM; vs naloxone 121 = 100% inhibition; agonist 109 (3 nM)
T4 sequence (P41145 whole entry): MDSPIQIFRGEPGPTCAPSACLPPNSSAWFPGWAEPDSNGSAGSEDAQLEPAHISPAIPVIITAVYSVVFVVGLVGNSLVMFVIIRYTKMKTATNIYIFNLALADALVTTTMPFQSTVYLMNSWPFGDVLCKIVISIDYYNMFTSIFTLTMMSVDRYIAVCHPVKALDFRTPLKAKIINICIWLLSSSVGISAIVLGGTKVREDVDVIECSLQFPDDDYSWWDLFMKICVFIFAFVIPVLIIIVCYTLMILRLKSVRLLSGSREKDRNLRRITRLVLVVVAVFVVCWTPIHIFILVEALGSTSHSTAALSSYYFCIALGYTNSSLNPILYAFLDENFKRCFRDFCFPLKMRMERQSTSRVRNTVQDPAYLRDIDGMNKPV

hNOP = hNOP (Homo sapiens, UniProt P41146); assay: Radioligand binding at NOP
DOR [5] = target: T2, DOR; assay: β-arrestin-recruitment TANGO assay at DOR; type: cell-based; settings: 10 μM
CYP1A2 = CYP1A2 (Homo sapiens, UniProt P05177); assay: Cytochrome P450 inhibition in human microsomes, 1A2; type: in vitro ADME; settings: CYP450 1A2 IC50, human microsomes
CYP3A4 = CYP3A4 (Homo sapiens, UniProt P08684); assay: Cytochrome P450 inhibition in human microsomes, 3A4; type: in vitro ADME; settings: CYP450 3A4 IC50, human microsomes
Human plasma stability = type: in vitro ADME; settings: after 2 h
hDAT [6] = target: T3, hDAT; assay: Radioligand binding at DAT; settings: for DAT, inhibition, % of control at 10 μM: [3H]WIN35428, negative = enhanced radioligand binding
KOR [7] = target: T4, KOR; assay: biochemical; type: binding; settings: for Ki: KOR, [3H]U69593, mean ± SEM, N = 2–4
CYP2C19 = CYP2C19 (Homo sapiens, UniProt P33261); assay: Cytochrome P450 inhibition in human microsomes, 2C19; type: in vitro ADME; settings: CYP450 2C19 IC50, human microsomes
Sequence of CYP2C19 (P33261 whole entry): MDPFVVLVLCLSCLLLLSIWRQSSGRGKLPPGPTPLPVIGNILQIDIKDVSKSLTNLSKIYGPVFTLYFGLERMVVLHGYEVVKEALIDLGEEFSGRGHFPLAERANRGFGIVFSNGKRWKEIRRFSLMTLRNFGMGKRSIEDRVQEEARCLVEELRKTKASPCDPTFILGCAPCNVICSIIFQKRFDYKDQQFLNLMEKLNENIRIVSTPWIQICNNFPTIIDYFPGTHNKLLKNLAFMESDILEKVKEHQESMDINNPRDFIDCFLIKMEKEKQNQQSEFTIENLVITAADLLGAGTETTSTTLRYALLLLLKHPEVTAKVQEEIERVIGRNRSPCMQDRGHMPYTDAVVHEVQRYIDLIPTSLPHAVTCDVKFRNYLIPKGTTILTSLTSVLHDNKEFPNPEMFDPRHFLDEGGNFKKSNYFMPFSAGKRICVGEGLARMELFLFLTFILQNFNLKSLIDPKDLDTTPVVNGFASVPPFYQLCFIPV

hA3AR [8] = target: T5, hA3AR (Homo sapiens, UniProt P0DMS8); assay: hA3AR-mediated inhibition of cAMP formation; type: cell-based; settings: read-out: maximal efficacy, hA3AR-mediated inhibition of cAMP formation
T5 sequence (P0DMS8 1-318): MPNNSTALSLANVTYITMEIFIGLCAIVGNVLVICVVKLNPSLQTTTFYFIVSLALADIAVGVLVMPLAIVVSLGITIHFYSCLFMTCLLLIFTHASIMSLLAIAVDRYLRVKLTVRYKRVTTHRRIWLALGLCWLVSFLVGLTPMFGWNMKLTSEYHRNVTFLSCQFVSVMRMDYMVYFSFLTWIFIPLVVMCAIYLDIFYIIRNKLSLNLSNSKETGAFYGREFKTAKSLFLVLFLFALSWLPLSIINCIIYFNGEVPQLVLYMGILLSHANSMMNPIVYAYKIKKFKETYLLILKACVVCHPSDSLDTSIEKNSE

hDAT [9] = target: T3, hDAT; assay: [3H]dopamine uptake inhibition at hDAT; type: cell-based
hNET [10] = target: T6, hNET (Homo sapiens, UniProt P23975); assay: hNET binding, [125I]118
T6 sequence (P23975 whole entry): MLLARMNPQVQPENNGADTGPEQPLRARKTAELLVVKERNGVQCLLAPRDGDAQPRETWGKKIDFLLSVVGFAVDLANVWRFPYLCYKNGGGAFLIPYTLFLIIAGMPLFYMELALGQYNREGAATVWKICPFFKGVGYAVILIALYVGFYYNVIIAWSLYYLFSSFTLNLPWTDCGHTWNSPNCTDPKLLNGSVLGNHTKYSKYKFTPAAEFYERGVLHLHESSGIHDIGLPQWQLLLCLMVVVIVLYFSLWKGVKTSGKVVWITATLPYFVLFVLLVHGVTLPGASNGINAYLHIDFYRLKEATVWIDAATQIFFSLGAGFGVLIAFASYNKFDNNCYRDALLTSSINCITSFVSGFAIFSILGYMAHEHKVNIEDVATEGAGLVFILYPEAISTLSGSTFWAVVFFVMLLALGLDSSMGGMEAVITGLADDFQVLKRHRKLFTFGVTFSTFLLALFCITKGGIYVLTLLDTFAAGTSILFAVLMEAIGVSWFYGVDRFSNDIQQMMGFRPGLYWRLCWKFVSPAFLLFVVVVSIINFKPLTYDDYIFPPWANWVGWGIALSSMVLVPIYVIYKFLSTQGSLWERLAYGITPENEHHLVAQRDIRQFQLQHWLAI

mA1AR = target: T7, mA1AR (Mus musculus, UniProt Q60612); assay: mA1AR binding; settings: read-out: mA1AR binding, % inhibition at 10 μM
T7 sequence (Q60612 1-326): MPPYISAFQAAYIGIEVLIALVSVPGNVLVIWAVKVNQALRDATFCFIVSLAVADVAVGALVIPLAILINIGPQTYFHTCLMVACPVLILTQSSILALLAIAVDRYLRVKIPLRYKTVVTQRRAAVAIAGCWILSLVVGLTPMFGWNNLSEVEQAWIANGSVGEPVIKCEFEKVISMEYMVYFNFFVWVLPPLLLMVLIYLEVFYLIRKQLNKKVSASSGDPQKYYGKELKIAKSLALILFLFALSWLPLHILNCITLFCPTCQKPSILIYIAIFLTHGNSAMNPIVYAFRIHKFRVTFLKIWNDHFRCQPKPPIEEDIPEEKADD

mA2AAR = mA2AAR (Mus musculus, UniProt Q60613); assay: mA2AAR binding; settings: read-out: mA2AAR binding, % inhibition at 10 μM
Sequence of mA2AAR (Q60613 whole entry): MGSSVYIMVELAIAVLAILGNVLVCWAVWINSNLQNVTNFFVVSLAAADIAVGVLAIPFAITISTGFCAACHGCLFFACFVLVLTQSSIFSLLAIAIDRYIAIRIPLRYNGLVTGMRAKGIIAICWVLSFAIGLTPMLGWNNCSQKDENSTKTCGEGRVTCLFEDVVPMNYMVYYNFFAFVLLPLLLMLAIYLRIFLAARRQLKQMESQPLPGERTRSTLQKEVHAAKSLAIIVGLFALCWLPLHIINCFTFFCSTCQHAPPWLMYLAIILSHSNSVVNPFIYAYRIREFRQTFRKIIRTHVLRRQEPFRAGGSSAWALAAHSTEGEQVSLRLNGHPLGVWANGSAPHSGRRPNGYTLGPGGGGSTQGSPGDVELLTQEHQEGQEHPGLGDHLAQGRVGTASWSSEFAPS

CYP2D6 = CYP2D6 (Homo sapiens, UniProt P10635); assay: Cytochrome P450 inhibition in human microsomes, 2D6; type: in vitro ADME; settings: CYP450 2D6 IC50, human microsomes
MOR [11] = target: T8, MOR (Homo sapiens, UniProt P35372); assay: biochemical; type: binding
T8 sequence (P35372 whole entry): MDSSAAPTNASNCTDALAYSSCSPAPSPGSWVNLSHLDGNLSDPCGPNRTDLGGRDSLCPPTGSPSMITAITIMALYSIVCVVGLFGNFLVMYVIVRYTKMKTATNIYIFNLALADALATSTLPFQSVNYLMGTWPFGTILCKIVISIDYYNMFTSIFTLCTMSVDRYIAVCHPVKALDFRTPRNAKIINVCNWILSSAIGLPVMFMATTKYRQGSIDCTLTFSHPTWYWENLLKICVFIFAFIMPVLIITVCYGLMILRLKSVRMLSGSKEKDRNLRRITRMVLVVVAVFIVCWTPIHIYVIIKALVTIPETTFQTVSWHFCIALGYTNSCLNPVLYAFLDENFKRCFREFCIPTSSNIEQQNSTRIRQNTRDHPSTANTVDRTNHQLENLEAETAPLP

[12] = Pharmacokinetics after intravenous and oral administration; type: in vivo, male Sprague Dawley rats
hERG = hERG (Homo sapiens, UniProt Q12809); assay: hERG inhibition, fluorescence polarization assay; type: binding
MOR [13] = target: T8, MOR; assay: β-arrestin-recruitment TANGO assay at MOR; type: cell-based; settings: 10 μM
KOR [14] = target: T4, KOR; type: cell-based; settings: antagonism of 1 μM U69593 98
CACO-2 cell permeability = type: in vitro ADME; settings: human, Caco-2, pH 7.4
CACO-2 cells = assay: CACO-2 cell permeability; type: in vitro ADME; settings: human, Caco-2, 120 min, 10 µM, pH 7.4
CYP2C9 = CYP2C9 (Homo sapiens, UniProt P11712); assay: Cytochrome P450 inhibition in human microsomes, 2C9; type: in vitro ADME; settings: CYP450 2C9 IC50, human microsomes
hDAT [15] = target: T3, hDAT; assay: hDAT binding modulation, [3H]mazindol 119
hA3AR [16] = target: T5, hA3AR; assay: A3AR binding; settings: for reduction of hA3AR binding affinity by 7-deaza modification: 28 vs 24, 54 vs 49, 55 vs 51
hSERT = hSERT (Homo sapiens, UniProt P31645); assay: hSERT binding and serotonin uptake
hNET [17] = target: T6, hNET; settings: read-out: Ki, inhibition of binding of [3H]104 at NET; cited from earlier work
hA1AR = target: T9, hA1AR (Homo sapiens, UniProt P30542); assay: hA1AR binding
T9 sequence (P30542 1-326): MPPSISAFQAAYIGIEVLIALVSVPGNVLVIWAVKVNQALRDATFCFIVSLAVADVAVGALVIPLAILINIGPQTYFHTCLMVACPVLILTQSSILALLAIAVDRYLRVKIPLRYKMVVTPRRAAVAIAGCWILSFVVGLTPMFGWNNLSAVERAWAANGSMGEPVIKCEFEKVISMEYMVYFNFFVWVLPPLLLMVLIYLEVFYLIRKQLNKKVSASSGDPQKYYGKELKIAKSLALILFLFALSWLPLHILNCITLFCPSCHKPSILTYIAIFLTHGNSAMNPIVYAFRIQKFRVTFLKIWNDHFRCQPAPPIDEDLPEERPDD

muscarinic M1 receptor = muscarinic M1 receptor (Homo sapiens, UniProt P11229); assay: PDSP off-target binding, muscarinic M1
Sequence of muscarinic M1 receptor (P11229 whole entry): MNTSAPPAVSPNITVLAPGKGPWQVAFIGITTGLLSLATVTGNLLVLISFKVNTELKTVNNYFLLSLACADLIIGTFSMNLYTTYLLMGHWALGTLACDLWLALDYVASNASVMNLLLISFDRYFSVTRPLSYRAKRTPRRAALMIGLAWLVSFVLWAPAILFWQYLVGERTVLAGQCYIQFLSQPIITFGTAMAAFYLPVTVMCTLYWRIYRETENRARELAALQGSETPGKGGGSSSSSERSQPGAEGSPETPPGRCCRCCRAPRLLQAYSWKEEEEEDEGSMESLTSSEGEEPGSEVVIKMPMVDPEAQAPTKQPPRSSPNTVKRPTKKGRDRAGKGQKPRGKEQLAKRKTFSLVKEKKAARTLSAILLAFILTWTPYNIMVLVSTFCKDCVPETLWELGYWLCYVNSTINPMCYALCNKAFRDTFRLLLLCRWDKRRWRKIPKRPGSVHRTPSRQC

5HT2B serotonin receptor = 5HT2B serotonin receptor (Homo sapiens, UniProt P41595); assay: PDSP off-target binding, 5HT2B
Sequence of 5HT2B serotonin receptor (P41595 whole entry): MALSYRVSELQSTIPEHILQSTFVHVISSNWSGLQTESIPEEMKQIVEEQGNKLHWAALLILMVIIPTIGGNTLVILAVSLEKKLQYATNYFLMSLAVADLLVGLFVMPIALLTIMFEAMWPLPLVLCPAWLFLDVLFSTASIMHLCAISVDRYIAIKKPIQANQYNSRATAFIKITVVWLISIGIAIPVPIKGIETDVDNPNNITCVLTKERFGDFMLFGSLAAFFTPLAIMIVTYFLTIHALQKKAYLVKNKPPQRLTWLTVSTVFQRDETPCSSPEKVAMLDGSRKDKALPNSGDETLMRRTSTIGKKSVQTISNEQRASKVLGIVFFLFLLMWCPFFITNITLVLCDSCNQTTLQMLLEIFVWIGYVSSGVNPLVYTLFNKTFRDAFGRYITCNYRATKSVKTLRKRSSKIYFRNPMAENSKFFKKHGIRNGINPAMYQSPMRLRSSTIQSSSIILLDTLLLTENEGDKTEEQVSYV

[18] = target: rat brain benzodiazepine receptor; assay: PDSP binding, rat brain benzodiazepine receptor; settings: read-out: rat brain benzodiazepine receptor, Ki
5HT2A serotonin receptor = 5HT2A serotonin receptor (Homo sapiens, UniProt P28223); assay: PDSP off-target binding, 5HT2A
[19] = male, Sprague-Dawley, rat, plasma, po

Compound: CCOC(=O)[C@@]12C[C@@H]1[C@@H](n1ccc3c(NC)nc(C#Cc4ccc(Cl)s4)nc31)[C@H](O)[C@@H]2O [compound 28, Ethyl(1S,2R,3S,4R,5S)-4-(2-((5-chlorothiophen-2-yl)ethynyl)-4-(methylamino)-7H-pyrrolo[2,3-d]pyrimidin-7-yl)-2,3-dihydroxybicyclo[3.1.0]hexane-1-carboxylate]
KOR Antag (%) (KOR [4]): 99.6%
Ki (hNOP): 3.71 ± 0.78 µM
DOR Antag (%) (DOR [5]; vs naloxone 121 = 100% inhibition): 85.4%
DOR Ag (%) (DOR [5]; vs standard agonist = 100%): –0.6%
IC50 (CYP1A2): ≥ 10 µM
IC50 (CYP3A4): ≥ 10 µM
stability in human plasma, remaining (Human plasma stability): 98%
Ki (DOR [2]): 0.786 ± 0.21 µM
EC50 (hDAT [6]): > 1 µM
DAT, inhibition, % of control at 10 μM (hDAT [6]): –172 ± 57 (3) %
ligand efficiency (KOR [7]; KOR binding): 0.25
Ki (KOR [7]): 0.042 ± 0.001 µM
preference for KOR in comparison to DOR (KOR [7]; ratio of Ki): 19 fold
preference for KOR in comparison to MOR (KOR [7]; ratio of Ki): 15 fold
preference for KOR in comparison to TSPO (KOR [7]; ratio of Ki): ~20 fold
IC50 (CYP2C19): ≥ 10 µM
Emax at 10 µM (hA3AR [8]): 0.59 ± 6.62%
IC50 (hDAT [9]): > 9.8 µM
EC50 (hNET [10]): > 10 µM
inhibition at 10 µM (mA1AR): 32%
inhibition at 10 µM (mA2AAR): 10%
IC50 (CYP2D6): ≥ 10 µM
Ki (MOR [11]): 0.637 ± 0.367 µM
MRT [12, 19]: 2.3 to 2.8 h
half-life [12, 19]: 1.6 to 2.2 h
oral bioavailability F ([12]; p.o. 1 mg/kg, 1 mg/kg): 58%
oral bioavailability F ([12]; p.o. 10 mg/kg, 10 mg/kg): 60%
IC50 (hERG): > 30 µM
MOR Antag (%) (MOR [13]; vs naloxone 121 = 100% inhibition, agonist 99 (300 nM)): 96.4%
MOR Ag (%) (MOR [13]; vs standard agonist = 100%): 0.4%
βarrestin2 recruitment, Imax (% 120) (KOR [14]): 92 ± 1 % 120
Papp A→B at 120 min, 10 µM (CACO-2 cell permeability): 1.42 ×10⁻⁶ cm/s
Efflux Ratio (CACO-2 cells): 15.6
Ki (rat kidney TSPO): 0.869 ± 0.16 µM
IC50 (CYP2C9): ≥ 10 µM
EC50 (hDAT [15]): 2.16 ± 0.55 µM
hDAT [3H]119 binding, % control binding (maximal) (hDAT [15]): 267 ± 17%
Ki (hA3AR [16]): 0.448 ± 0.013 µM
reduction of hA3AR binding affinity by 7-deaza modification (hA3AR [16]): 31 fold
hSERT binding enhancement / serotonin uptake inhibition potency (hSERT): > 10 µM

Compound: O[C@@H]1[C@H](O)[C@@H]2C[C@@H]2[C@H]1n1ccc2c(NC(C3CC3)C3CC3)nc(C#Cc3ccc(Br)s3)nc21 [compound 57, (1R,2R,3S,4R,5S)-4-(2-((5-Bromothiophen-2-yl)ethynyl)-4-((dicyclopropylmethyl)amino)-7H-pyrrolo[2,3-d]pyrimidin-7-yl)bicyclo[3.1.0]hexane-2,3-diol]
Ki [18]: 0.118 µM
Ki (rat σ2 receptor): 6.92 µM
Ki (DOR [2]): > 10 µM
Ki (KOR [7]): 3.02 ± 0.09 µM
Ki (MOR [11]): > 10 µM
Ki (5HT2A serotonin receptor): 4.34 ± 1.74 µM
Ki (hA3AR [16]): 2.44 ± 0.43 µM

Second part, led by results:

Ki [1]: 6.3 µM
Ki (rat σ2 receptor): 2.51 µM
Ki (β3 adrenergic receptor): 2.5 µM
Compound: CNC(=O)[C@@]12C[C@@H]1[C@@H](n1cnc3c(NC4CC4c4ccccc4)nc(C#Cc4ccccc4)nc31)[C@H](O)[C@@H]2O (mixture of isomers) [compound 10]
DOR, inhibition of radioligand binding at 10 μM (class) (DOR [2]; Table 1): ^e (30–50% inhibition of radioligand binding at 10 μM)
TSPO, inhibition of radioligand binding at 10 μM (class) (rat kidney TSPO; Table 1): ^f (<30% inhibition of radioligand binding at 10 μM)
Ki (hDAT [3]): 2.31 µM

DAT, inhibition, % of control at 10 μM (hDAT [6]): –154%
Compound: CCNc1nc(C#Cc2ccccc2)nc2c1ncn2[C@H]1[C@H](O)[C@H](O)[C@@H]2C[C@@H]21 [compound 50]
DOR, inhibition of radioligand binding at 10 μM (class) (DOR [2]; Table 4): ^g (<30% inhibition of radioligand binding at 10 μM)
Ki (hNET [17]): 8.66 µM
TSPO, inhibition of radioligand binding at 10 μM (class) (rat kidney TSPO; Table 4): ^f (30–50% inhibition of radioligand binding at 10 μM)

Ki (hA1AR): 1.3 µM
Ki (DOR [2]): 3.66 ± 1.33 µM
Ki (KOR [7]): 1.37 ± 0.18 µM
Ki (muscarinic M1 receptor): 6.97 µM
Ki (MOR [11]): 4.02 ± 0.89 µM
Ki (5HT2B serotonin receptor): 3.06 ± 0.17 µM
Ki (rat kidney TSPO): 2.12 ± 0.23 µM
Ki (hA3AR [16]): 0.217 ± 0.065 µM
reduction of hA3AR binding affinity by 7-deaza modification (hA3AR [16]): 11 fold
Compound: O[C@@H]1[C@H](O)[C@@H]2C[C@@H]2[C@H]1n1ccc2c(NCCc3ccccc3)nc(C#Cc3ccccc3)nc21 [compound 55, (1R,2R,3S,4R,5S)-4-(4-(Phenethylamino)-2-(phenylethynyl)-7H-pyrrolo[2,3-d]pyrimidin-7-yl)bicyclo[3.1.0]hexane-2,3-diol]
